Data as given in a melting point compilation (Tetko et al.; mined from patent text by program, amines drawn as free bases though some values may be those of a salt).
Residues, ends and D or L forms follow the SMILES beside them. *: point of attachment. Propionyl = CCC(=O)*; NHPh = c1ccc(N*)cc1

Row | melting point | Structure (SMILES)
1 | 182 to 184 °C | Cn1c(COc2ccc(CC3SC(=O)NC3=O)cc2)nc2ccc(Oc3ccc(NC(=O)C4CCCCC4)cc3)cc21 (stereo not given)
2 | 254 °C | O=C(O)c1cccc2c1[nH]c1ccc(F)cc12
3 | 160 to 161 °C | CCc1nc2c(C)cc(C)nc2n1Cc1ccc(C(c2ccccc2C)C(C(=O)O)C(=O)O)cc1 (stereo not given)
4 | 136 to 138 °C | COC(=O)c1ccc(N2CCCC2=O)c(N)c1
5 | 91 to 92 °C | COC(=O)c1nc(O)ccc1OCc1ccccc1
6 | 159 to 161 °C | Nc1cc(C(=O)O)cc(SCc2ccccc2)c1Oc1ccccc1
7 | 295 to 300 °C | O=C(CC1CCCCC1)Nc1c(Cl)ccc2nc(N3CCC(c4nnn[nH]4)CC3)ccc12
8 | > 250 °C | CC(=O)Nc1ccc2c(c1)C(=O)CC1(CCN(Cc3ccc([N+](=O)[O-])cc3)CC1)O2
9 | 145 to 147 °C | COc1ccc(C(=O)c2ccc(Oc3ccc(Cl)cc3)cn2)cc1OC
10 | 252 °C | CC(C)n1cc(-c2nc(C(N)=O)c(N)nc2-c2ccccc2F)ccc1=O
11 | 318 to 319 °C | COc1ccccc1-n1c(=O)[nH]c2c(C(N)=O)nc(-n3cnc4ccccc43)nc21
12 | 136 to 137 °C | CCOC(=O)c1cc(=O)nc2n1-c1ccc(C)cc1OC2
13 | 254 °C | CN1CCN(NC(=O)Nc2cccc3c2C(=O)c2c-3n[nH]c2-c2ccc(N3CCNCC3)cc2)CC1
14 | 240 to 242 °C | CC(C)(CO)c1ccc(C(=O)Nc2cn3cc(Cl)ccc3n2)cc1
15 | 82 °C | CCCC(=O)OCC(=O)c1ccc(-c2ccccc2)cc1
16 | 177 to 178 °C | O=C(O)COc1ccc2cc(-c3oc4ccccc4c3C(=O)CC3CCCC3)ccc2c1
17 | 145 to 146 °C | Nc1cc(=O)n(Cc2ccc(Br)c(Cl)c2)[nH]1
18 | 121 to 122 °C | COC(=C(C#N)C(=O)Nc1ccccc1)c1cccn1C
19 | 156 to 157 °C | CCC(=O)N[C@@H](C)C(=O)N1CCC[C@H]1C(=O)Nc1ccccc1 (Propionyl-Ala-Pro-NHPh)
20 | 125 to 127 °C | Cc1ccc(CN[C@H](CO)Cc2ccccc2)cc1

The remaining lines, values behind:

Row | Structure (SMILES) | melting point
21 | COc1ccc(CNc2nc(SC)ncc2C(O)c2nccn2C)cc1Cl (stereo not given) | 179 to 180 °C
22 | Nc1ccc(F)c(C(=O)NCC(=O)O)c1 | 252 to 254 °C
23 | C#CCOc1cc(-n2nc(C)c([N+](=O)[O-])c2C)c(F)cc1Cl | 125 to 126 °C
24 | CSc1cc(-c2nc3ccccc3[nH]2)no1 | 179 to 181 °C
25 | Cn1c(=O)c(=O)[nH]c2cccnc21 | 238 to 239 °C
26 | CCCCCCCCCCCC(=O)OC[C@H]1OCC(=NO)[C@@H](O)[C@@H]1O | 90 to 101 °C
27 | COc1ccc(C=CC(=O)C2CC2)cc1OC | 89 to 91 °C
28 | OCCCSc1ccc2nccn2n1 | 108 to 109 °C
29 | CC(C)C[C@@H](CO)NC(=O)[C@H](Cc1c[nH]cn1)NC(=O)C(CNCCCc1ccccc1)Cc1cccc2ccccc12 (stereo not given in full) | 72 to 76 °C
30 | CC(=O)OCC1COc2c(C(=O)O)cc(Cl)c(Cl)c2O1 (stereo not given) | 144 to 145 °C
31 | COc1ccc(-c2c(Cl)c(CCl)nc3cc(OC)c(OC)cc23)cc1OC | 206 to 207 °C
32 | CON=CCN1C(=O)C(NC(=O)c2cc3ccccc3[nH]2)N=C(c2ccccc2)c2ccccc21 (racemic) | 169 to 174 °C
33 | CCc1c(NC(=O)c2cc(S(C)(=O)=O)ccc2OCC(C)C)c(C(N)=O)nn1C1CCN(C(=O)OC(C)(C)C)CC1 | 134 to 141 °C
34 | Cn1ccc2ccc(CO)cc21 | 47 to 49 °C
35 | COc1cc(F)cc2c1-c1c(F)cc(F)cc1C2=O | 164 to 166 °C
36 | N#Cc1ccc(OCc2cccnc2)cc1F | 105 to 110 °C
37 | COc1ccc(C(O)C(CO)[N+](=O)[O-])cc1OC (stereo not given) | 134 to 138 °C
38 | Cc1cccc(Sc2nc(C#N)c(C#N)nc2Cl)c1 | 117 to 119 °C
39 | CC(=O)CSc1nc2ccccc2[nH]1 | 112 to 113 °C
40 | CN1CCN(c2c(F)cc3c(=O)c(C(=O)O)cn(C4CSC4)c3c2F)CC1 | 204 to 206 °C
